Where two headings read alike, the source gives them in different places.
Assays:
[1] = type: in vivo, mice; settings: mice, i.v.
Protocol: Each tracer was intravenously injected into mice, and then the animals were killed by cervical dislocation at 1, 5, 15, 30 and 60 min after injection (n = 4). The body weight of the mice was 34.7±1.2 g. The injected doses of tracers were 2 MBq/0.049–0.051 nmol. Blood was collected by heart puncture and tissues were harvested. The carbon-11 in the samples was counted with an auto-gamma-counter (LKB Wallac Compu-gamma 1282CS, Turku, Finland) and the tissues were weighed. The tissue uptake of carbon-11 was expressed as the %ID/g.

[2] = biological target: α7 nAChRs (Macaca mulatta, UniProt Q866A2); settings: rhesus monkey, in vivo
Sequence of α7 nAChRs (Q866A2 23-502): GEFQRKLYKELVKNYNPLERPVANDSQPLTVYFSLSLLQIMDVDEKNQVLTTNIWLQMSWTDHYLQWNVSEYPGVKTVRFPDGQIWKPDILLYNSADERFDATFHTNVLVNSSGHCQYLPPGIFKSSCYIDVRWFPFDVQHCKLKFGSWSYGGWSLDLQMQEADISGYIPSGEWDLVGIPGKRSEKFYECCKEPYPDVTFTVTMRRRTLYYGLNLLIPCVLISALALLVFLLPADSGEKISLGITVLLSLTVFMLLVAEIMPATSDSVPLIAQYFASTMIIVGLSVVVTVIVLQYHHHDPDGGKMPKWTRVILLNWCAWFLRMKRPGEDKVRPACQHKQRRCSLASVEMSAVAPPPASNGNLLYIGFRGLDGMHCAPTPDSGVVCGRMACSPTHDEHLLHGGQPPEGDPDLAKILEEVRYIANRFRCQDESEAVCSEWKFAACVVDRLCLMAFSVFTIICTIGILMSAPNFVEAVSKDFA
Description: Four young-adult male rhesus monkeys (Macaca mulatta) weighing from 4 to 6 kg were used for PET measurements. The monkeys were trained for the protocol as described previously. The magnetic resonance images (MRI) of all monkeys were obtained with a Toshiba MRT-50A/II (0.5T) under anesthesia with pentobarbital. The stereotactic coordinates of PET and MRI were adjusted based on the orbitomeatal (OM) line with monkeys secured in a specially designed head holder. At least 1 month before the PET study, an acrylic plate, with which the monkey was fixed to the monkey chair, was attached to the head under pentobarbital anesthesia as described previously.
PET data were collected on a high-resolution PET scanner (SHR-7700; Hamamatsu Photonics K.K., Hamamatsu, Japan). The camera consists of 16 detector rings and acquires 20 slices at a center-to-center interval of 3.6 mm with a transaxial resolution of 2.6 mm full width at half maximum. After an overnight fast, the monkey was fixed to the monkey chair with stereotactic coordinates aligned parallel to the OM line. A cannula was implanted in the posterior tibial vein, and [^11C]A-582941 or [^11C]A-844606 (1152–1336 MBq/26.8–63.1 nmol) was injected into the monkey through the venous cannula. PET images were acquired over 91 min (10 sec ×6 frames, 30 sec ×6 frames, 1 min ×12 frames, and 3 min ×25 frames). PET scans were reconstructed using a filtered backprojection method in a 100×100 matrix, with a voxel size of 1.2 mm ×1.2 mm ×3.6 mm. Summed image of late phase (from 70 to 91 min post-injection) was calculated as a static SUV (activity/ml tissue)/(injected activity/g body weight) image. Each MRI was coregistered to an early (from 0 to 20 min) summed image using normalized mutual information, and ROIs were placed on the summed image with reference to the coregistered MRI. Three monkeys underwent [^11C]A-582941 scan morning, and then two of the three monkeys underwent [^11C]A-844606 afternoon (baseline). Within 6 months the last one of the three monkeys underwent two [^11C]A-844606 scans in the baseline (morning) and blocking (afternoon) conditions 30 min after injection of SSR180711 (5.0 mg/kg, i.v.), and the fourth monkey underwent two [^11C]A-582941 scans in the baseline and blocking conditions in the same way.
For the semi-quantitative analysis of PET data, arterial samples were obtained every 8 sec from injection to 64 sec, and then again at 1.5, 2.5, 4, 6, 10, 20, 30, 45, 60, and 90 min after each tracer injection. Blood samples were centrifuged to separate the plasma, weighed, and subjected to radioactivity measurement. For metabolite analysis, methanol was added to some plasma samples, the resulting solutions were centrifuged, and the supernatants were developed with TLC plates (AL SIL G/UV; Whatman, Kent, UK) using a mobile phase of dichloromethane/diethyl ether/ethanol/triethylamine (20/20/2/2, v/v/v/v). At each sampling time point, the ratio of radioactivity in the unmetabolized fraction to that in the total plasma (metabolite plus unmetabolite) was determined using a phosphoimaging plate (BAS-1500 MAC; Fuji Film Co., Tokyo, Japan). The pTACs corrected for metabolite were obtained. The tTACs in each region of interest (ROI) in the brain were calculated as the %ID/ml or as a standardized uptake value (SUV), (activity/ml tissue)/(injected activity/g body weight). Using the tTACs and the metabolite-corrected pTAC, the V T for each tracer was evaluated by Logan graphical analysis.

[11CH3]N1CC2CN(c3ccc(-c4ccccc4)nn3)CC2C1 (stereo not shown) [[^11C]A-582941, 2-[^11C]Methyl-5-[6-phenylpyridazine-3-yl]octahydropyrrolo[3,4-c]pyrrole]
time of peak radioactivity in the brain [1]: 5 min | % Injected dose/g tissue, Blood ([1]; 1 min after injection): 1.84±0.43 % Injected dose/g tissue | % Injected dose/g tissue, Brain ([1]; 1 min after injection): 2.61±0.33 % Injected dose/g tissue | % Injected dose/g tissue, Heart ([1]; 1 min after injection): 4.33±0.82 % Injected dose/g tissue | % Injected dose/g tissue, Kidney ([1]; 1 min after injection): 13.87±1.58 % Injected dose/g tissue | % Injected dose/g tissue, Liver ([1]; 1 min after injection): 3.59±0.45 % Injected dose/g tissue | % Injected dose/g tissue, Lung ([1]; 1 min after injection): 18.09±4.18 % Injected dose/g tissue | % Injected dose/g tissue, Muscle ([1]; 1 min after injection): 2.02±0.34 % Injected dose/g tissue | % Injected dose/g tissue, Pancreas ([1]; 1 min after injection): 4.65±0.76 % Injected dose/g tissue | % Injected dose/g tissue, S. intestine ([1]; 1 min after injection): 3.13±0.51 % Injected dose/g tissue | % Injected dose/g tissue, Spleen ([1]; 1 min after injection): 2.70±0.31 % Injected dose/g tissue | % Injected dose/g tissue, Blood ([1]; 5 min after injection): 0.89±0.04 % Injected dose/g tissue | % Injected dose/g tissue, Brain ([1]; 5 min after injection): 3.92±0.49 % Injected dose/g tissue | % Injected dose/g tissue, Heart ([1]; 5 min after injection): 2.16±0.13 % Injected dose/g tissue | % Injected dose/g tissue, Kidney ([1]; 5 min after injection): 8.77±0.79 % Injected dose/g tissue | % Injected dose/g tissue, Liver ([1]; 5 min after injection): 10.52±0.69 % Injected dose/g tissue | % Injected dose/g tissue, Lung ([1]; 5 min after injection): 12.52±8.59 % Injected dose/g tissue | % Injected dose/g tissue, Muscle ([1]; 5 min after injection): 1.40±0.16 % Injected dose/g tissue | % Injected dose/g tissue, Pancreas ([1]; 5 min after injection): 7.47±0.54 % Injected dose/g tissue | % Injected dose/g tissue, S. intestine ([1]; 5 min after injection): 4.49±0.60 % Injected dose/g tissue | % Injected dose/g tissue, Spleen ([1]; 5 min after injection): 5.53±0.38 % Injected dose/g tissue | % Injected dose/g tissue, Blood ([1]; 15 min after injection): 0.76±0.06 % Injected dose/g tissue | % Injected dose/g tissue, Brain ([1]; 15 min after injection): 3.63±0.28 % Injected dose/g tissue | % Injected dose/g tissue, Heart ([1]; 15 min after injection): 1.72±0.17 % Injected dose/g tissue | % Injected dose/g tissue, Kidney ([1]; 15 min after injection): 6.02±0.97 % Injected dose/g tissue | % Injected dose/g tissue, Liver ([1]; 15 min after injection): 12.38±1.68 % Injected dose/g tissue | % Injected dose/g tissue, Lung ([1]; 15 min after injection): 7.02±0.10 % Injected dose/g tissue | % Injected dose/g tissue, Muscle ([1]; 15 min after injection): 1.06±0.09 % Injected dose/g tissue | % Injected dose/g tissue, Pancreas ([1]; 15 min after injection): 5.80±0.80 % Injected dose/g tissue | % Injected dose/g tissue, S. intestine ([1]; 15 min after injection): 4.61±0.60 % Injected dose/g tissue | % Injected dose/g tissue, Spleen ([1]; 15 min after injection): 5.13±0.72 % Injected dose/g tissue | % Injected dose/g tissue, Blood ([1]; 30 min after injection): 0.64±0.06 % Injected dose/g tissue | % Injected dose/g tissue, Brain ([1]; 30 min after injection): 2.68±0.29 % Injected dose/g tissue | % Injected dose/g tissue, Heart ([1]; 30 min after injection): 1.39±0.10 % Injected dose/g tissue | % Injected dose/g tissue, Kidney ([1]; 30 min after injection): 4.83±0.77 % Injected dose/g tissue | % Injected dose/g tissue, Liver ([1]; 30 min after injection): 9.87±0.80 % Injected dose/g tissue | % Injected dose/g tissue, Lung ([1]; 30 min after injection): 6.06±0.31 % Injected dose/g tissue | % Injected dose/g tissue, Muscle ([1]; 30 min after injection): 0.82±0.07 % Injected dose/g tissue | % Injected dose/g tissue, Pancreas ([1]; 30 min after injection): 4.68±0.51 % Injected dose/g tissue | % Injected dose/g tissue, S. intestine ([1]; 30 min after injection): 5.33±1.20 % Injected dose/g tissue | % Injected dose/g tissue, Spleen ([1]; 30 min after injection): 3.64±0.14 % Injected dose/g tissue | % Injected dose/g tissue, Blood ([1]; 60 min after injection): 0.57±0.05 % Injected dose/g tissue | % Injected dose/g tissue, Brain ([1]; 60 min after injection): 1.85±0.10 % Injected dose/g tissue | % Injected dose/g tissue, Heart ([1]; 60 min after injection): 1.02±0.08 % Injected dose/g tissue | % Injected dose/g tissue, Kidney ([1]; 60 min after injection): 3.74±0.20 % Injected dose/g tissue | % Injected dose/g tissue, Liver ([1]; 60 min after injection): 7.24±0.74 % Injected dose/g tissue | % Injected dose/g tissue, Lung ([1]; 60 min after injection): 4.13±0.15 % Injected dose/g tissue | % Injected dose/g tissue, Muscle ([1]; 60 min after injection): 0.66±0.05 % Injected dose/g tissue | % Injected dose/g tissue, Pancreas ([1]; 60 min after injection): 3.69±0.42 % Injected dose/g tissue | % Injected dose/g tissue, S. intestine ([1]; 60 min after injection): 4.53±1.21 % Injected dose/g tissue | % Injected dose/g tissue, Spleen ([1]; 60 min after injection): 2.89±0.90 % Injected dose/g tissue | V T Baseline, Cerebellum ([2]; male): 25.4 mL/g | V T Baseline, Frontal cortex ([2]; male): 34.5 mL/g | V T Baseline, Hippocampus ([2]; male): 31.6 mL/g | V T Baseline, Thalamus ([2]; male): 34.0 mL/g | V T SSR180711, Cerebellum ([2]; male): 17.3 mL/g | V T SSR180711, Frontal cortex ([2]; male): 23.0 mL/g | V T SSR180711, Hippocampus ([2]; male): 20.4 mL/g | V T SSR180711, Thalamus ([2]; male): 23.6 mL/g | V T, cerebellum (mean ± SD) ([2]; male): 23.0±3.4 | V T, cerebellum (range) ([2]; male): 18.0–25.4 | V T, frontal cortex (mean ± SD) ([2]; male): 29.2±4.7 | V T, frontal cortex (range) ([2]; male): 23.2–34.5 | V T, hippocampus (mean ± SD) ([2]; male): 28.0±3.8 | V T, hippocampus (range) ([2]; male): 22.8–31.6 | V T, thalamus (mean ± SD) ([2]; male): 30.4±4.1 | V T, thalamus (range) ([2]; male): 24.6–34.0 | time of peak radioactivity in the four brain regions (thalamus, frontal cortex, hippocampus, cerebellum) ([2]; male): 10 min | % decrease of V T, Cerebellum [2]: 32.0% | % decrease of V T, Frontal cortex [2]: 33.4% | % decrease of V T, Hippocampus [2]: 35.5% | % decrease of V T, Thalamus [2]: 30.5% | decrease of V T by pretreatment with SSR180711 [2]: ~30%
